Key:
Format in all cases: cell-based
IGF-1R = IGF-1R (Homo sapiens, UniProt P08069); test: IGF-1R phosphorylation ELISA in MCF-7/HER2-18 cells; set-up: endogenous in cells; host or cells: MCF-7/HER2-18; conditions: 3 nM IGF-I 10 min
Description: RTK inhibitors were dissolved in DMSO and diluted with culture medium before being added to cells for 1.5 hour at 37° C. The final concentration of DMSO during the incubation was 0.3% . For some studies, cells were also stimulated with 3 nM IGF-I for 10 minutes at 37° C. Reactions were terminated by rapidly aspirating medium and washing cells three times with ice cold PBS. Cells were harvested and solubilized in 50 mM HEPES, 150 mM NaCl, 1% Triton X-100, 1 mM PMSF, and 2 mM vanadate for 1 hour at 4° C. Protein concentrations were determined by BCA assay (Pierce, Rockford, Ill.). […] Briefly, 10 μg lysate protein were added to triplicate wells in a 96-well plate coated with monoclonal antibody to the IGF-IR (IR3; 2 μg/ml), and incubated for 18 hours at 4° C. Plates were washed five times and then HRP-conjugated anti-phosphotyrosine antibody (0.3 μg/ml), diluted in Solution B (50 mM HEPES, pH 7.6, 150 mM NaCl, 0.05% Tween-20, 1 mM PMSF, 2 mM vanadate and 1 mg/ml bacitracin), was added for two hours at 22° C. Plates were washed five times prior to color development with TMB substrate, which was terminated with 1.0 M H3PO4. Values for receptor phosphorylation were determined by measuring absorbance at 450 nm.

MCF-7/neo cells = test: Tamoxifen and/or NDGA growth inhibition of MCF-7/neo cells (CyQuant); conditions: Homo sapiens, MCF7, 144 h; MCF-7/neo cells, tamoxifen 100 nM, 6 days
Description: (§1) Cells were estrogen-starved for three days in DMEM containing 10% charcoal-[…]-stripped FCS (CDSS) prior to their plating in 96 well plates. Cells were plated in 100 μl of the same media, allowed to adhere overnight, and then were switched to DMEM+10% CDSS supplemented with 100 pM estrogen. […] The media and inhibitors were refreshed on day 3, the cultures were harvested on day 6, and a CyQuant assay was performed as described above.

MCF-7/HER2-18 cells = test: Tamoxifen and/or NDGA growth inhibition of MCF-7/HER2-18 cells (CyQuant); conditions: Homo sapiens, 144 h; MCF-7/HER2-18 cells, tamoxifen 100 nM, 6 days
Description: as §1

Chain of IGF-1R (P08069 31-1367): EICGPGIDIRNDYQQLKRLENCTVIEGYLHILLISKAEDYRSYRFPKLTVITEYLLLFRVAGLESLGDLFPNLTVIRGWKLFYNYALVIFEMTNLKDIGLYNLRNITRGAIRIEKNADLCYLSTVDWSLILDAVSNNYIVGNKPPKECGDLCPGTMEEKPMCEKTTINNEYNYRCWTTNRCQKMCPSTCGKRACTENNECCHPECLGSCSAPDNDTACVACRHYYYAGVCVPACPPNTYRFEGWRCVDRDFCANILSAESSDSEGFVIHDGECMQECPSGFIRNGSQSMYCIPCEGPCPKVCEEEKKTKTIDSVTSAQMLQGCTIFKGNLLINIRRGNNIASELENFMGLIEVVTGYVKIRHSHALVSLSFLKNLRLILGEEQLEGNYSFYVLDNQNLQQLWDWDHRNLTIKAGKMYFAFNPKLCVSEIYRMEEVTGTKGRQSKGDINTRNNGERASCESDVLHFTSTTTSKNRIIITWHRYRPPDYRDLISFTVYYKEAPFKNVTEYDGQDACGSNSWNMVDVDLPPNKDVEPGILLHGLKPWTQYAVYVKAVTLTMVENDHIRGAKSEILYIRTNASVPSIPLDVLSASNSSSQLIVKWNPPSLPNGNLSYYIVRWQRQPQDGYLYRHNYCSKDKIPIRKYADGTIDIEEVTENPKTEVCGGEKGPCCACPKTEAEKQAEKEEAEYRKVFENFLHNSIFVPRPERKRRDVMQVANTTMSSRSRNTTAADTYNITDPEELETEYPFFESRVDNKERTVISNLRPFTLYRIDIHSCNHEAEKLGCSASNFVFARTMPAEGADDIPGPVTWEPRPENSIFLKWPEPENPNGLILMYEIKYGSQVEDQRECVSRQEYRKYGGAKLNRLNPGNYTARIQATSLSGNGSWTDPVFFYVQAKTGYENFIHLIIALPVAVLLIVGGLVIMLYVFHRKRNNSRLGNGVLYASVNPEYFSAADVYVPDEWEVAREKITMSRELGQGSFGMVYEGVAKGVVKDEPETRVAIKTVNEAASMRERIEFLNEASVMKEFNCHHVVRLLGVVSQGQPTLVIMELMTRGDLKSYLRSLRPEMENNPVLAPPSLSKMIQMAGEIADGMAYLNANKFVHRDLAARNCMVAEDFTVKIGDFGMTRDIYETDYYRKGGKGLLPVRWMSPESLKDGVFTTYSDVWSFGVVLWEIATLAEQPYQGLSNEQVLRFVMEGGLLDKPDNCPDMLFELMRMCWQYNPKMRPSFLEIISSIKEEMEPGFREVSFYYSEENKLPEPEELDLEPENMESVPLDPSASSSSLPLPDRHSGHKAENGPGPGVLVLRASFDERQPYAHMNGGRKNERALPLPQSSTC

SMILES | IGF-1 stimulated phosphorylation of the IGF-1R (IGF-1R) | inhibition at 0.1 µM (MCF-7/neo cells) [%] | inhibition at 0.1 µM (MCF-7/HER2-18 cells) [%]
COc1cc2ncnc(Nc3ccc(F)c(Cl)c3)c2cc1OCCCN1CCOCC1 [gefitinib, Gefitinib, reference compound] | only a weak inhibitory effect |  | 
CC/C(=C(\c1ccccc1)c1ccc(OCCN(C)C)cc1)c1ccccc1 [tamoxifen, reference compound] |  | > 50 | 24

From patent US8143226B2, “Tyrosine kinase receptor antagonists and methods of treatment for breast cancer” (The Regents of the University of California, priority 2005, dated 2012)
